Source: article PMC3045100, “Cell-Penetrating Penta-Peptides (CPP5s): Measurement of Cell Entry and Protein-Transduction Activity” (Pharmaceuticals, 2010)
Residues, ends and D or L forms follow the SMILES beside them. *: point of attachment. 5FAM = O=C1OC2(c3ccc(O)cc3Oc3cc(O)ccc32)c2ccc(C(=O)*)cc21

These compounds were tested on Jurkat cells (assay: Cell entry in cells lacking caveolin-mediated endocytosis). Details: cells reported to lack caveolin-mediated endocytotic activity; data not shown.
Assay type: cell-based
From the text: Chinese hamster ovary (CHO) A745 cells lack proteoglycans in the plasma membrane, and this cell line has been used to determine whether proteoglycans are required for CPP entry. […] (Figure 3c and d). The cell-penetrating activity of CPP5s was also examined in Jurkat cells that are reported to lack caveolin-mediated endocytotic activity.

Row | Compound | Entry into Jurkat cells
1 | CSCC[C@H](NC(=O)[C@@H](NC(=O)[C@@H]1CCCN1C(=O)[C@H](CC(C)C)NC(=O)[C@H](CCCCN)NC(=O)c1ccc2c(c1)C(=O)OC21c2ccc(O)cc2Oc2cc(O)ccc21)C(C)C)C(=O)O [Fam-KLPVM] (5FAM-KLPVM-OH) | able to enter Jurkat cells
2 | CC(C)C[C@H](NC(=O)[C@@H](NC(=O)[C@@H]1CCCN1C(=O)[C@@H](NC(=O)c1ccc2c(c1)C(=O)OC21c2ccc(O)cc2Oc2cc(O)ccc21)C(C)C)[C@@H](C)O)C(=O)N[C@@H](CCCCN)C(=O)O [Fam-VPTLK] (5FAM-VPTLK-OH) | able to enter Jurkat cells

What follows are compounds tested on DAMI cells (assay: Cell-penetration activity of Fam-labeled CPP5s, cellular fluorescence by FACS and/or microscopy). Details: peptides Fam-labeled on the N-terminus, 200 μM, 3 h, 37 °C, fluorescence intensity of cells by FACS, mean of triplicate samples.
Assay type: cell-based, human
Set-up: key to Cell Penetration, cell entry confirmed by microscopy only: Cell entry of some peptides was confirmed by microscopy only, and these peptides are indicated with a ‘+’ without a percentage value
Procedure: Figure 1 Cell-penetration activity of CPP5s. a. List of cell-penetrating penta-peptides (CPP5s). […] Peptide sequences are color-coded to show the constant amphipathic amino acid arrangement in each CPP5. Cell-penetration activity was determined by fluorescence intensity of cells (DAMI cells: a human megakaryocytic cancer cell line) incubated with fluorescein (Fam)-labeled peptides (200 μM) for 3 h at 37 °C as described in Experimental Procedures. Fam was labeled on the N-terminus of all peptides examined. Cells were analyzed by FACS and/or microscopy. The activity of each peptide is shown as a percentage of the activity of KLPVM. Each value represents the mean of triplicate samples. Cell entry of some peptides was confirmed by microscopy only, and these peptides are indicated with a ‘+’ without a percentage value. For cytoprotective activity (right column), the information is based on previous studies and the activity was determined by the protection of cells from Bax overexpression and other apoptotic stimuli such as etoposide treatment. b to e. Cell entry of Fam-labeled VPTLK, KLPVM, TAT, and poly-arginine (R8). HeLa cells were incubated with Fam-labeled VPTLK, KLPVM (200 μM), Fam-TAT (10 μM), and Fam-R8 (10 μM) for 1 h at 37 °C. Images are at 20× magnification. f. Comparison of the cytotoxicity of CPP5 and TAT. Primary cultured mouse embryonic fibroblast (MEF) cells were treated with various concentrations of peptides for 24 h as indicated. Then, apoptosis was analyzed as described in Experimental Procedures. Each bar represents the mean of triplicate samples and standard error. TEXT PRINTED IN THE PICTURE: (a) VPMLK: Cell Penetration (%): 97 ± 4.3; Cytoprotection: + | (a) VPTLK: Cell Penetration (%): 61 ± 1.7; Cytoprotection: + | (a) VPALR: Cell Penetration (%): 79 ± 1.5; Cytoprotection: + | (a) VSALK: Cell Penetration (%): 90 ± 3; Cytoprotection: N.D. | (a) PMLKE: Cell Penetration (%): 65 ± 3.7; Cytoprotection: + | (a) VPALK: Cell Penetration (%): 71 ± 2.2; Cytoprotection: + | (a) VSLKK: Cell Penetration (%): +; Cytoprotection: - | (a) VSGKK: Cell Penetration (%): +; Cytoprotection: - | (a) KLPVM: Cell Penetration (%): 100 ± 2.3; Cytoprotection: - | (a) IPMIK: Cell Penetration (%): 47 ± 1.4; Cytoprotection: - | (a) KLGVM: Cell Penetration (%): +; Cytoprotection: - | (a) KLPVT: Cell Penetration (%): +; Cytoprotection: - | (a) VPMIK: Cell Penetration (%): +; Cytoprotection: N.D. | (a) IPALK: Cell Penetration (%): +; Cytoprotection: N.D. | (a) IPMLK: Cell Penetration (%): +; Cytoprotection: N.D. | (a) VPTLQ: Cell Penetration (%): 70 ± 4; Cytoprotection: - | (a) QLPVM: Cell Penetration (%): +; Cytoprotection: - | (a) ELPVM: Cell Penetration (%): +; Cytoprotection: - | (a) VPTLE: Cell Penetration (%): 80 ± 1.9; Cytoprotection: N.D.
CPP5s that were designed based on the Bax-binding domain of Ku70 of several species are named Bax-Inhibiting Peptides (BIPs); they are VPMLK, PMLKE, VPTLK, VPALR, and VPALK. VPMLK and PMLKE were designed from human Ku70, and the same sequence exists in the Ku70 homologues of dog and monkey. VPTLK and VPALR are based on mouse and rat Ku70, respectively. VPALK was designed from cattle Ku70, and the same sequence exists in Ku70 of the African clawed frog. Cytoprotective activities of these BIPs have been previously reported, both in cell culture and animal models. […] The observed variation in cell-entering activity of Fam-labeled-CPP5s is shown in Figure 1a as a percentage of the activity of KLPVM. In all cases, Fam was attached to the N-terminal amino acid. For some CPP5s, cell-penetration activity was confirmed by detection of an intracellular fluorescent signal by microscopy. These latter results are indicated with ‘+’ symbols, and a quantitative comparison with the activity of KLPVM was not performed. […]

Row | Compound | Cell Penetration (%), percentage of the activity of KLPVM
3 | VPMLK | 97 ± 4.3%
4 | KLPVM | 100 ± 2.3%
5 | IPMIK [cell-penetrating penta-peptide (CPP5)] | 47 ± 1.4%
6 | PMLKE | 65 ± 3.7%
7 | VPALR | 79 ± 1.5%
8 | VPALK | 71 ± 2.2%
9 | VPTLQ [cell-penetrating penta-peptide (CPP5)] | 70 ± 4%
10 | VSALK [cell-penetrating penta-peptide (CPP5)] | 90 ± 3%
11 | VPTLE [cell-penetrating penta-peptide (CPP5)] | 80 ± 1.9%

Same assay, conditions: peptides Fam-labeled on the N-terminus, 200 μM, 3 h, 37 °C, intracellular fluorescent signal by microscopy, no comparison with KLPVM

Row | Compound | Cell Penetration, cell entry confirmed by microscopy only
12 | IPMLK [cell-penetrating penta-peptide (CPP5)] | +
13 | KLGVM [cell-penetrating penta-peptide (CPP5)] | +
14 | VPMIK [cell-penetrating penta-peptide (CPP5)] | +
15 | QLPVM [cell-penetrating penta-peptide (CPP5)] | +
16 | VSLKK [cell-penetrating penta-peptide (CPP5)] | +
17 | ELPVM [cell-penetrating penta-peptide (CPP5)] | +
18 | KLPVT [cell-penetrating penta-peptide (CPP5)] | +
19 | IPALK [cell-penetrating penta-peptide (CPP5)] | +
20 | VSGKK [cell-penetrating penta-peptide (CPP5)] | +

Each compound was assayed on Primary cultured mouse embryonic fibroblast (MEF) cells (assay: Cytotoxicity (apoptosis, Hoechst nuclear staining) of CPP5 and TAT). Details: not given.
Assay type: cell-based
Procedure: List of cell-penetrating penta-peptides (CPP5s). […] Peptide sequences are color-coded to show the constant amphipathic amino acid arrangement in each CPP5. […] Fam was labeled on the N-terminus of all peptides examined. Cells were analyzed by FACS and/or microscopy. The activity of each peptide is shown as a percentage of the activity of KLPVM. Each value represents the mean of triplicate samples. Cell entry of some peptides was confirmed by microscopy only, and these peptides are indicated with a '+' without a percentage value. For cytoprotective activity (right column), the information is based on previous studies and the activity was determined by the protection of cells from Bax overexpression and other apoptotic stimuli such as etoposide treatment. b to e. Cell entry of Fam-labeled […], and poly-arginine (R8). […] Comparison of the cytotoxicity of CPP5 and TAT. Primary cultured mouse embryonic fibroblast (MEF) cells were treated with various concentrations of peptides for 24 h as indicated. Then, apoptosis was analyzed as described in Experimental Procedures. Each bar represents the mean of triplicate samples and standard error.

Row | Compound | Cytotoxic effect at 1.6 mM in the cell culture medium
21 | KLPVM | did not show significant cytotoxic effects

These compounds were tested on lysosomes of HeLa cells and DAMI cells (assay: Co-localization of Fam-VPTLK with lysosomes (LysoTracker red)). Details: Fam-VPTLK 50 μM and LysoTracker 100 nM, 1 h, 37 °C, microscopy.
Assay type: cell-based
From the text: Lysosomes are known to contain molecules which have entered the cell through pinocytosis. To determine whether CPP5s use pinocytotic pathways for their cell entry, the localizations of Fam-labeled CPP5s and lysosomes (labeled by LysoTracker® Red) were compared. […] In contrast, FITC-labeled transferrin and LysoTracker-Red co-localized extensively, which is consistent with the understanding that transferrin enters cells through receptor-mediated endocytosis (Figure 2c).
Figure 2 Mechanism of cell entry of CPP5s. a and b. […] Microscopic analysis of the co-localization of Fam-VPTLK with lysosome-staining dye (LysoTracker™ red DND-99, L7528 Invitrogen). Hela cells (a) and DAMI cells (b) were incubated with Fam-VPTLK (50 μM) and LysoTracker (100 nM) for 1 h at 37 °C. c. FITC-labeled Transferin (FITC-Transferin) co-localized with lysosome. HeLa cells were incubaled with FITC-transferin (100 nM) and LysoTracker (100 nM) for 1 h at 37 °C. d. […] Cells were incubated with peptides for 1 h and the cellular fluorescence intensity was measured by fluorescence microscopy equipped with image analysis software (for Fam-labeled peptides) or FACS (for Tamra-labeled peptides) as described in Experimental Procedures. […] The results are shown as percentages of the fluorescence intensity of inhibitor-treated cells (the intensity of non-treated cells is designated as 100%). […]

Row | Compound | Co-localization with lysosomes
22 | CC(C)C[C@H](NC(=O)[C@@H](NC(=O)[C@@H]1CCCN1C(=O)[C@@H](NC(=O)c1ccc2c(c1)C(=O)OC21c2ccc(O)cc2Oc2cc(O)ccc21)C(C)C)[C@@H](C)O)C(=O)N[C@@H](CCCCN)C(=O)O [Fam-VPTLK] (5FAM-VPTLK-OH) | partially co-localizes with lysosomes

The compounds below were run on HeLa cells (assay: FACS analysis of cell penetration of Fam-VPTLK versus medium concentration). Details: 3 h, up to 1.6 mM in medium, triplicate samples.
Assay type: cell-based
Procedure: For examination of the cell-penetrating activity of 5,6-carboxyfluorescein (Fam)-labeled CPP5 peptides (Fam-VPMLK, Fam-VPTLK), DAMI cells and HeLa cells (5.0×10^4 cells/mL) were incubated with different concentrations of Fam-labeled peptides for different time periods. Excess peptides were removed by extensive washing with Hanks’ buffered saline solution (HBSS) as previously reported and cellular entry of Fam-labeled peptides was analyzed using a fluorescence microscope (Nikon; TE200), a confocal scanning laser microscope (Leica; TCS SP2), and a FACS instrument (XL Aria), or a Coulter EPICS® XL-MCR.

Row | Compound | Cell entry of Fam-VPTLK as a function of medium concentration
23 | CC(C)C[C@H](NC(=O)[C@@H](NC(=O)[C@@H]1CCCN1C(=O)[C@@H](NC(=O)c1ccc2c(c1)C(=O)OC21c2ccc(O)cc2Oc2cc(O)ccc21)C(C)C)[C@@H](C)O)C(=O)N[C@@H](CCCCN)C(=O)O [Fam-VPTLK] (5FAM-VPTLK-OH) | linear increase up to the maximum concentration examined

Each compound was assayed on HeLa cells (assay: Effect of pinocytosis and endocytosis inhibitors on cell entry of Fam- or Tamra-labeled peptides). Details: serum-free DMEM, cytochalasin D 10 µM 30 min pre-treatment, then Tamra-labeled peptide 1 h, VPTLK 30 μM, R8 10 μM, FACS, mean of three experiments and standard error.
Assay type: cell-based
Procedure: HeLa cells were incubated with each inhibitor in serum-free DMEM for 30 min, followed by incubation for 1 h with Fam-labeled CPP5 peptides (30 μM). Then, the cells were extensively washed with Hanks’ Buffered Salt Solution (HBSS) and complete DMEM, prior to the detection of fluorescence by microscopy and FACS. None of amiloride, chlorpromazine, cytochalasin D, Filipin III, nocodazole and methyl-beta-cyclodextrin blocked the entry of Fam-labeled VPTLK and KLPVM into HeLa cells. […] As a control experiment to validate the effectiveness of these inhibitors, FITC-transferrin (for chlorpromazine) and rhodamine-labeled EGF (for cytochalasin D and amiloride) were used. […] To compare the cell-penetrating mechanism between CPP5s and arginine-rich CPPs, the uptake of TAT and R8 was also examined in the presence of these inhibitors.
Figure 2 Mechanism of cell entry of CPP5s. a and b. […] Cells were incubated with peptides for 1 h and the cellular fluorescence intensity was measured by fluorescence microscopy equipped with image analysis software (for Fam-labeled peptides) or FACS (for Tamra-labeled peptides) as described in Experimental Procedures. […] The results are shown as percentages of the fluorescence intensity of inhibitor-treated cells (the intensity of non-treated cells is designated as 100%). […]

Row | Compound | Relative Fluorescence Intensity (No Inhibitor=100%), Cytochalasin D, Tamra-labeled peptides
24 | Tamra-VPTLK [Tamra-labeled VPTLK] | 57±4%
